Earlier results in patent US8968755B2, “Topical base and active agent-containing compositions, and methods for improving and treating skin” (priority 2010, dated 2015).

solubility in water: insoluble in water
Compound: CCCCCCCCCCCCCCCCCCO [Stearyl alcohol, 1-octadecanol]
